Laboratory results: patent publication EP0897904B1, “Fungicidal 2-methoxybenzophenones” (BASF AKTIENGESELLSCHAFT, priority 1997, dated 1999)

Legend:
[1] = test system: Blumeria (Erysiphe) graminis DC. f.sp. hordei E. Marchal; assay: Zero day protectant test, Barley Powdery Mildew (BPM); type: in vivo; conditions: barley variety Golden Promise, 0 day protectant test, side-by-side, technical material in 0.5% acetone 0.05% Tween 20 water
Source text: (§1) • (a) Wheat Powdery Mildew (WPM): HOST: Wheat (Triticum aestivum L.) variety Kanzler PATHOGEN: Blumeria (Erysiphe) graminis DC. f.sp. tritici E. Marchal • (b) Barley Powdery Mildew (BPM): HOST: Barley (Hordeum vulgare L.) variety Golden Promise PATHOGEN: Blumeria (Erysiphe) graminis DC. f.sp. hordei E. Marchal
(§2) This test is a zero day protectant test for control of wheat and barley powdery mildews. • 1. Wheat or barley seed (approximately 8-10/pot) is planted in 6 cm diameter plastic pots and maintained in the greenhouse. • 2. When the primary leaf is fully expanded, formulated test compounds are sprayed with a single nozzle overhead track sprayer at a rate of 200 l/ha. Plants are then allowed to air-dry. • 3. Inoculation follows about three hours after compound application. Plants are set up on greenhouse benches with bottom watering mats and inoculated by dusting them with conidia from powdery mildew infected plants (stock cultures at an age of 10-14 days). • 4. Disease on the primary leaf as percent leaf area with disease symptoms/signs is evaluated about 7 days after inoculation. The tips and bases of the leaves are excluded from the evaluation. Percent disease control is then calculated by the following formula: % disease control = 100 -(% infection in treated plants)/(% infection in untreated plants)x 100 [formula]
(§3) • 1. Technical compounds are formulated in a solvent/surfactant system consisting of […] acetone and 0.05% Tween 20 in deionized water. Compounds are dissolved in acetone prior to addition of the water; the Tween 20 can be added through either the acetone or the water. Dilutions are made using the solvent/surfactant system. Test compounds are typically tested over a range of concentrations covering several orders of magnitude and then ED values are calculated for comparison of compounds. Formulated compounds are prepared using deionized water. • 2. Two kinds of controls are included: • Plants treated with the solvent/surfactant solution and inoculated (Solvent Blank). • Untreated plants which are inoculated (Inoculated Control).
(§4) Compounds applied as technical material formulated in 0.5% acetone 0.05% Tween 20 water

[2] = test system: Blumeria (Erysiphe) graminis DC. f.sp. tritici E. Marchal; assay: Zero day protectant test, Wheat Powdery Mildew (WPM); type: in vivo; conditions: wheat variety Kanzler, 0 day protectant test, side-by-side, technical material in 0.5% acetone 0.05% Tween 20 water
Source text: as §1, §2, §3, §4

SMILES: COc1cc(C)c(C(=O)c2c(C)cccc2OC)c(OC)c1OC [Example 1, 6,6'-dimethyl-2,2',3',4'-tetramethoxy-benzophenone]
- ED90 (ppm) [1]: 6 ppm
- ED90 (ppm) [2]: 4 ppm
